Patent US20250171420A1 (Monte Rosa Therapeutics, Inc., priority 2022, published 2025)

Experiments:
[1] = Oral pharmacokinetics in male BALB/c mice; type: in vivo; conditions: mouse, PO 10 mg/kg, plasma, mean ± SD
Procedure: Male BALB/c mice were administered a discrete, oral (PO) dose of Compound 288, Compound 335, Compound 102, or Compound 303 at 10 mg/kg; all mice were fasted except for mice that were dosed with Compound 288. Male BALB/c mice were fasted overnight and administered a cassette dose, PO dose of Compound 303 and other compounds at 5 mg/kg per compound.
Blood samples were collected serially from three animals/time-point following PO administration of the test compounds to the mice and placed in tubes containing K2EDTA. The blood samples were centrifuged, and the aliquots of the resulting plasma stored frozen at −60 to −90° C.
The plasma samples were analyzed by LC-MS/MS to determine concentrations of the test compounds. The in-life portion of the study and the bioanalysis of plasma samples was conducted at Wuxi (China).
The pharmacokinetic parameters for the tested compounds were calculated by non-compartmental analysis using Phoenix WinNonlin software.

GP2D cell line = assay: Growth inhibition, CyQUANT Direct Cell Proliferation Assay, GP2D; type: cell-based; conditions: GP2D, 120 to 168 hours; read-out: GP2D GI50
Procedure, shortened: (§1)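 Cells seeded 300 to 1,800 per well, day-0 CyQUANT Direct read after overnight attachment; 9-point 3-fold dilutions from 30 μM top concentration, 120 to 168 h exposure, 0.3% DMSO control. Fluorescence Ex/Em 480/520 nm; growth inhibition normalised to day-0 and untreated day-N signals, GI50 at 50% of untreated control.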

CRBN/DDB1 = CRBN/DDB1 (Homo sapiens, UniProt Q96SW2); assay: HTRF binding assay (displacement of Cy5-thalidomide probe from CRBN/DDB1); conditions: CRBN/DDB1 2.5 nM, Cy5-Thalidomide 100 nM, 30 min; geometric mean; read-out: HTRF_Thali_Disp_DR_geo_IC50
Procedure, shortened: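 HTRF displacement of Cy5-thalidomide (100 nM) from His-tagged CRBN/DDB1 (2.5 nM) with anti-His Tb cryptate in 20 mM HEPES, 20 mM NaCl, 0.2 mM TCEP, 0.2 mM EDTA, 0.005% Tween20. 10-point 1:3 series, 30 min ambient. 665/620 nm ratio fitted 4-parameter for IC50; Ki by Cheng-Prusoff from geometric-mean IC50.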

CW2 cell line = assay: Growth inhibition, CyQUANT Direct Cell Proliferation Assay, CW2; type: cell-based; conditions: Homo sapiens, CW-2; CW2, 120 to 168 hours; read-out: CW2 GI50
Procedure, shortened: as §1

CRBN/DDB1, sequence (Q96SW2 whole entry, species assumed): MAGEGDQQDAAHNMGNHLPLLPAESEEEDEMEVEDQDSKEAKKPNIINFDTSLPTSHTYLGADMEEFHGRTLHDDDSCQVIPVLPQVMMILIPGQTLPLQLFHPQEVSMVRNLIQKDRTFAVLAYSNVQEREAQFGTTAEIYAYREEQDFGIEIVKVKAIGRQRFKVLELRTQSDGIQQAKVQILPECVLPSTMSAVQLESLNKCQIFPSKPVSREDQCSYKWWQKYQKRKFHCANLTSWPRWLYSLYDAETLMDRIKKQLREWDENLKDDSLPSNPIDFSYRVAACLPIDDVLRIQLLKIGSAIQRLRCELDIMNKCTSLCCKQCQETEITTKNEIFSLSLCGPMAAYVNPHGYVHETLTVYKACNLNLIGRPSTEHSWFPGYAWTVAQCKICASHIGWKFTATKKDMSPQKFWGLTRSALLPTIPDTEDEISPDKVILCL
CRBN/DDB1, sequence (Q16531 whole entry partner, species assumed): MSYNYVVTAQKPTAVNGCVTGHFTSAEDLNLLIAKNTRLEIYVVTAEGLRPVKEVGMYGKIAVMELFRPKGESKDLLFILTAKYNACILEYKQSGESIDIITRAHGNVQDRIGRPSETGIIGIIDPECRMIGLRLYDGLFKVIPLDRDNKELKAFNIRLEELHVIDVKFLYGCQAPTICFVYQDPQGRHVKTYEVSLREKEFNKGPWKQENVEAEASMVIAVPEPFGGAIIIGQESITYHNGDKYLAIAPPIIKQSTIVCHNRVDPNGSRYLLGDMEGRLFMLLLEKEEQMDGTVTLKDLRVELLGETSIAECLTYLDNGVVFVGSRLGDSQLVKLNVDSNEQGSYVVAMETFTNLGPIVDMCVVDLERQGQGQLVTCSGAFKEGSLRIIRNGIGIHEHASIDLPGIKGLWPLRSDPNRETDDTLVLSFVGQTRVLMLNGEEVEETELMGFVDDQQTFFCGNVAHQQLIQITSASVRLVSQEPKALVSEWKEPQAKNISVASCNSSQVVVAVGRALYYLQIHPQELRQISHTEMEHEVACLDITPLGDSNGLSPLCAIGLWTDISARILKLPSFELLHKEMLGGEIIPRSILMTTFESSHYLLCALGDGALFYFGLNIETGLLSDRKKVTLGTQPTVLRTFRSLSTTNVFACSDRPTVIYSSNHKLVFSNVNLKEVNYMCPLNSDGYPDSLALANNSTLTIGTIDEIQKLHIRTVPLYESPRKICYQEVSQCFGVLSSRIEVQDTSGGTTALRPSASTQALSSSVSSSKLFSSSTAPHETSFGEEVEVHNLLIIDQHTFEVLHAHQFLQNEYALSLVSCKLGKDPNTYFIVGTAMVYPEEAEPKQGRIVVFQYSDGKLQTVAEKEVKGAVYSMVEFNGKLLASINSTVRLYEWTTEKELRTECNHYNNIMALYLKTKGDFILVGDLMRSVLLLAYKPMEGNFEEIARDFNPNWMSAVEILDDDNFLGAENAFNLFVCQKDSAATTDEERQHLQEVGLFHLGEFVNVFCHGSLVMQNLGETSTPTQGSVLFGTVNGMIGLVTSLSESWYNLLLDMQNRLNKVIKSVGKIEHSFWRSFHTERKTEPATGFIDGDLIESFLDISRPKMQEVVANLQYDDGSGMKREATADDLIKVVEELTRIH

- AUC [1]: 1.04 ± 0.245 µg·h/mL
- AUC(0-t) [1]: 0.889 ± 0.218 µg·h/mL
- Cmax [1]: 0.361 ± 0.142 µg/mL
- Tmax [1]: 1.33 ± 0.58 h
- IC50 (CRBN/DDB1): 0.1 to 1 µM
Compound: C[C@@H]1Cc2ccccc2N1C(=O)Nc1ccc2c(c1)CN(C1CCC(=O)NC1=O)C2=O (stereo partly drawn) [Compound 102, (2R)—N-(2-(2,6-dioxopiperidin-3-yl)-1-oxoisoindolin-5-yl)-2-methylindoline-1-carboxamide]
- GI50 (GP2D cell line): 0.1 to 1 µM
- GI50 (CW2 cell line): < 0.1 µM
